Experimental data: patent US20070203244A1, “INHIBITORS OF MEMBRANE TYPE-1 MATRIX METALLOPROTEINASE FOR THE TREATMENT OF INSULIN-DEPENDENT DIABETES MELLITUS” (priority 2006, published 2007)

How the values were obtained:
NOD mice [1] = test: Adoptively transferred diabetes in NOD mice (IS-CD8+ cells); format: in vivo
Experimental: IS-CD8^+ cells were labeled with DiI and then injected in NOD mice. In 24 h, the labeled cells with their intra-islet location were counted in the cryostat sections of the entire pancreas. […] IS-CD8^+ cells were injected in NOD mice. […] PBS containing […] DMSO was used as a vehicle control. The onset of diabetes was monitored daily by measuring urine glucose levels with the Diastix reagent strips. Mice with urine glucose levels of ≧2000 mg/dl for 3 consecutive days were considered diabetic. * and **, p=0.02 and p=0.015 by Fisher's test, respectively.
Mice were monitored for 21 days. […] The onset of diabetes was identified by assessing urine glucose levels with Diastix® strips (Bayer). Mice with urine glucose levels of >2000 mg/dl for 3 consecutive days were considered diabetic. […] The level of glucose in the urine closely follows that in the blood (Traisman, H. S., and Greenwood, R. D. (1973)). The measurement of glucose in urine is a widely accepted method to follow the development of diabetes in NOD mice (Pomerleau, D. P., et al. (2005)).

[2] = continuous oral dosing, cited from earlier work
MT1-MMP [3] = molecular target: T1, MT1-MMP (Mus musculus, UniProt P53690); test: MT1-MMP-dependent MMP-2 activation in adherent IS-CD8+ cells, gelatin zymography; format: cell-based, NOD mouse
T1 construct: Endogenous MT1-MMP is latent in non-adherent IS-CD8^+ cells; endogenous in cells; host or cells: IS-CD8+ T cells (TGNFC8 clone, NOD mouse), adherent to gelatin
Experimental: MT1-MMP-dependent MMP-2 Activation and Gelatin Zymography—IS-CD8^+ cells (1×10^6) were either allowed to adhere for 4 h in serum-free unsupplemented Click's medium to plastic coated with 2% gelatin or kept in solution. Under these experimental conditions, the vast majority of cells became attached to gelatin. In 4 h, media samples (30 μl each) were withdrawn and analyzed by gelatin zymography (Deryugina, E. I., et al. (2001)) to identify the proteolytic activity and the activation status of MMP-2 naturally synthesized by IS-CD8^+ cells. Where indicated, cells were supplemented with external purified pro-MMP-2 (20 ng). Pro-MMP-2 was isolated from a conditioned medium of p2AHT2A72 cells derived from an HT1080 fibrosarcoma cell line sequentially transfected with the E1A and MMP-2 cDNAs (Strongin, A. Y., et al. (1995)).
MT1-MMP-dependent MMP-2 activation and gelatin zymography—IS-CD8^+ cells (1×10^6) were either allowed to adhere for 4 h in serum-free unsupplemented Click's medium to the plastic coated with 2% gelatin or kept in solution. In 18 h, media samples (30 μl each) were withdrawn and analyzed by gelatin zymography (Deryugina, E. I., et al. (2001)) to identify the proteolytic activity and the activation status of MMP-2 naturally synthesized by IS-CD8^+ cells. […] Pro-MMP-2 was isolated from a conditioned medium of p2AHT2A72 cells derived from an HT1080 fibrosarcoma cell line sequentially transfected with the E1A and MMP-2 cDNAs (Strongin, A. Y., et al. (1995)).

[4] = system: CD44 shedding in IS-CD8+ cells; test: CD44 shedding in adherent IS-CD8+ cells, Western blotting; format: cell-based, NOD mouse
Experimental: Western Blotting—IS-CD8^+ cells were surface biotinylated for 1 h at 4° C. with 0.1 mg/ml sulfo-NHS-LC-biotin (Pierce, Rockford, Ill.). Following washes to remove biotin, cells were co-incubated for 2 h with MT1-MMP-CAT in serum-free, unsupplemented Click's medium. The cells were then lysed with 50 mM N-octyl-β-D-glucopyranoside in phosphate-buffered saline supplemented with 1 mM CaCl2, 1 mM MgCl2, and protease inhibitor mixture containing phenylmethylsulfonyl fluoride (1 mM) and aprotinin, pepstatin, and leupeptin (1 μg/ml each). Biotin-labeled CD44 was captured from the cell lysate and from the medium aliquots on streptavidin-agarose beads. The captured samples were examined by Western blotting with the CD44 (clone IM7.8.1) antibody to determine the released, soluble, CD44 ectodomain in the medium samples and the residual, membrane-anchored, cellular CD44 in the cell lysates.
Western blotting—IS-CD8^+ cells were surface biotinylated for 1 hr at 4° C. with 0.1 mg/ml of sulfo-NES-LC-biotin (Pierce). Following washes to remove biotin, the labeled cells were allowed to adhere in serum-free medium to plastic coated with 2% type I collagen/gelatin for 4 h or were kept in suspension. Under these experimental conditions, the vast majority of the cells became attached to gelatin. […] The cells were then lysed with 50 mM N-octyl-β-D-glucopyranoside in PBS supplemented with 1 mM CaCl2, 1 mM MgCl2, and protease inhibitor cocktail containing phenylmethylsulfonyl fluoride (1 mM) and aprotinin, pepstatin, and leupeptin (1 μg/ml each). Biotin-labeled CD44 was captured from the cell lysate and from the medium aliquots on streptavidine-Agarose beads. The captured samples were examined by Western blotting with the CD44 (clone IM7.8.1) antibody to determine the released, soluble, CD44 ectodomain in the medium samples and the residual, membrane-anchored, cellular CD44 in the cell lysates.

NOD mice [5] = test: Spontaneous diabetes in NOD mice, insulin jointly with AG3340; format: in vivo
Experimental: Newly diabetic NOD mice—NOD mice developed diabetes in approximately 5 months after the birth. The onset of spontaneous diabetes was identified by assessing urine glucose levels with Diastix® strips (Bayer). Mice with urine glucose levels >2000 mg/dl for three consecutive days were considered diabetic. […] Injections were continued for 40 days and then mice were sacrificed. Leukocytes and granulated β cells were stained with H&E and aldehyde fuchsin, respectively, in the sections of paraformaldehyde-fixed, paraffin-embedded, pancreata. […] To identify hormone-producing cells the sections were stained with the antibody to insulin (Linco Research, St. Charles, Mo.) and glucagons (DacoCytomation, Carpinteria, Calif.) followed by species-specific secondary horseradish peroxidase-conjugated antibody and a 3,3′-diaminobenzidine substrate.
Insulin injections were then suspended. Mice which after the onset of the disease received insulin became hyperglycemic in a matter of 2-3 days and were then sacrificed according to NIH guidelines.

MT1-MMP [6] = conditions: cited from earlier work
[7] = AG3340 1 mg/kg i.p. with insulin, 40 days

CC1(C)SCCN(S(=O)(=O)c2ccc(Oc3ccncc3)cc2)[C@H]1C(=O)NO [AG3340]
delay of the onset of diabetes compared with the control (NOD mice [1]; Example 1: cells co-incubated with AG3340, 1 mg/kg i.p. on days 0, 2, 4, 6, 8, 10): ~2 fold
delay of the onset of diabetes compared to the control (NOD mice [1]; Example 3: 1 mg/kg i.p. 30 min prior to cells, then every other day): approximately 2 fold
dose inducing musculoskeletal effects that required dose discontinuation in more than half of the subjects ([2]; 2 to 100 mg/day in two doses per day): above 25 mg/day
severe dose-limiting toxicity ([2]; 2 to 100 mg/day): did not result in severe dose-limiting toxicity
activation of MMP-2 in adherent cells (MT1-MMP [3]; Example 2: AG3340 50 μM, TIMP-1 and TIMP-2 100 ng/ml, 18 h): fully blocked
activation of MMP-2 in adherent cells (MT1-MMP [3]; Example 3: inhibitors added for 18 h): fully blocked
shedding of CD44 in adherent cells ([4]; Example 2: AG3340 50 μM, TIMP-1 and TIMP-2 100 ng/ml): fully blocked
shedding of CD44 in adherent cells ([4]; Example 3): fully blocked
islet regeneration in the pancreatic parenchyma (NOD mice [5]; [7]): de novo formation of the islet-like structures
number of the intact islets and the islets with limited peri-islet insulitis (NOD mice [5]; [7]): increase
glycemia after insulin injections were suspended (NOD mice [5]; insulin jointly with AG3340 for 40 days, then no external insulin): normoglycemic/mildly hyperglycemic for several weeks
severity of insulitis compared to the control (NOD mice [5]; insulin s.c. jointly with AG3340 1 mg/kg i.p. every two-three days, 40 days): significant and promising reduction
return of overtly diabetic mice to normoglycemia (NOD mice [5]; short-term treatment, AG3340 1 mg/kg i.p. with insulin, 40 days): not sufficient
Ki for MT1-MMP (MT1-MMP [6]): sub-nanomolar
